Assays:
[1] = tested on: E. coli K12 BW25113; test: ISFET chip detection of potassium ion efflux after addition of antibacterial agent, positive control; assay type: cell-based; details: in SM buffer, compared to negative control BL21, FIG. 12
Procedure: In this example, the bacteriocin Colicin A9 was combined with E. coli K12 BW25113 as the positive control. As negative controls, Colicin A9 was combined with Staphylococcus aureus 8325, and Colicin A9 was combined with Pseudomonas aeruginosa (PA01). Experiments were performed as described above for Example 1, using the ISFET system 600.
In this example, the Polymyxin B antibiotic (PMB) was combined with E. coli K12 BW25113 in SM buffer as the positive control. As the negative control, Polymyxin B antibiotic (PMB) combined with E. coli K12 BL21 (DE3-Δtail) (referred to as BL21) in SM buffer. Experiments were performed as described above for Example 1, using the ISFET system 600.

[2] = tested on: Staphylococcus aureus 8325; test: ISFET chip detection of potassium ion efflux after addition of lysostaphin, positive control; assay type: cell-based; details: compared to negative controls E. coli K12 BW25113 and P. aeruginosa (PA01), FIG. 11
Source text: In this example, the lysostaphin from Staphylococcus simulans was combined with Staphylococcus aureus 8325 as the positive control. As negative controls, lysostaphin from Staphylococcus simulans was combined with E. coli K12 BW25113, and lysostaphin from Staphylococcus simulans was combined with Pseudomonas aeruginosa (PA01).

| Substance | ISFET output from efflux of potassium ions [1] | ISFET output from efflux of potassium ions [2] |
| --- | --- | --- |
| Polymyxin B | output increases |  |
| lysostaphin: lysostaphin from Staphylococcus simulans |  | output increases |
